≈ marks a conversion by molar mass, not a printed value. Calls of active or inactive are those of the source. The rule behind the calls is not given here.
Tests used:
[1] = molecular target: Metabotropic glutamate receptor 5 (Homo sapiens, UniProt P41594); assay: Positive allosteric modulation of mGlu5 receptor (unknown origin)
[2] = molecular target: T1, Metabotropic glutamate receptor 2 (Homo sapiens, UniProt Q14416); assay: Positive allosteric modulation of recombinant human mGlu2 receptor expressed in CHO cells assessed as potentiation of glutamate-induced effect preincubated for 5 mins followed by glutamate stimulation for 3 mins by Fluo-4AM staining-based FLIPR assay; assay type: cell-based
[3] = molecular target: Metabotropic glutamate receptor 4 (Homo sapiens, UniProt Q14833); assay: Positive allosteric modulation of mGlu4 receptor (unknown origin)
Metabotropic glutamate receptor 4, sequence (Q14833 whole entry): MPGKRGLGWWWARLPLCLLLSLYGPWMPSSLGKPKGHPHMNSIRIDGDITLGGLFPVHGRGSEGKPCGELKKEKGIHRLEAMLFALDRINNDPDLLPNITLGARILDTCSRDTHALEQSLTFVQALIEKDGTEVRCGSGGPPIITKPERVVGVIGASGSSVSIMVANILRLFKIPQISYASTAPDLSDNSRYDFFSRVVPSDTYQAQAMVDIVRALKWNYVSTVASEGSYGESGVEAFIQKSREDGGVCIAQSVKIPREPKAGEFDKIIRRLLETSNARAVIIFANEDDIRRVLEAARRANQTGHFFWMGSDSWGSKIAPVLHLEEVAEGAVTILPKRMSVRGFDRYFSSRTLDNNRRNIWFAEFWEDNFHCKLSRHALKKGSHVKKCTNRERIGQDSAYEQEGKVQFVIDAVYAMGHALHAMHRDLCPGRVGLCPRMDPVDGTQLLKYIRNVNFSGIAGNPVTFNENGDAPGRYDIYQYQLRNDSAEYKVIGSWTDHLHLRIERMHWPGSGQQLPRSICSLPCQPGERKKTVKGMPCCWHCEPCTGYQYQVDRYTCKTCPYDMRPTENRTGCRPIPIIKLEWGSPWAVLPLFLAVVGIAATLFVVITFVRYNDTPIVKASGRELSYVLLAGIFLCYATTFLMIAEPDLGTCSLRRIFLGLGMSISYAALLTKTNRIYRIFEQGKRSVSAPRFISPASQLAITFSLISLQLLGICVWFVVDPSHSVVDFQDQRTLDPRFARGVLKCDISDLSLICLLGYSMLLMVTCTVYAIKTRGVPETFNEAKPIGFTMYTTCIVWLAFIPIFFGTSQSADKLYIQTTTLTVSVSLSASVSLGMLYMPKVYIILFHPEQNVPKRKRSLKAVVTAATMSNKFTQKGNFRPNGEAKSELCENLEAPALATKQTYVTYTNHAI

[4] = molecular target: Metabotropic glutamate receptor 3 (Homo sapiens, UniProt Q14832); assay: Positive allosteric modulation of mGlu3 receptor (unknown origin)
Metabotropic glutamate receptor 3, sequence (Q14832 whole entry): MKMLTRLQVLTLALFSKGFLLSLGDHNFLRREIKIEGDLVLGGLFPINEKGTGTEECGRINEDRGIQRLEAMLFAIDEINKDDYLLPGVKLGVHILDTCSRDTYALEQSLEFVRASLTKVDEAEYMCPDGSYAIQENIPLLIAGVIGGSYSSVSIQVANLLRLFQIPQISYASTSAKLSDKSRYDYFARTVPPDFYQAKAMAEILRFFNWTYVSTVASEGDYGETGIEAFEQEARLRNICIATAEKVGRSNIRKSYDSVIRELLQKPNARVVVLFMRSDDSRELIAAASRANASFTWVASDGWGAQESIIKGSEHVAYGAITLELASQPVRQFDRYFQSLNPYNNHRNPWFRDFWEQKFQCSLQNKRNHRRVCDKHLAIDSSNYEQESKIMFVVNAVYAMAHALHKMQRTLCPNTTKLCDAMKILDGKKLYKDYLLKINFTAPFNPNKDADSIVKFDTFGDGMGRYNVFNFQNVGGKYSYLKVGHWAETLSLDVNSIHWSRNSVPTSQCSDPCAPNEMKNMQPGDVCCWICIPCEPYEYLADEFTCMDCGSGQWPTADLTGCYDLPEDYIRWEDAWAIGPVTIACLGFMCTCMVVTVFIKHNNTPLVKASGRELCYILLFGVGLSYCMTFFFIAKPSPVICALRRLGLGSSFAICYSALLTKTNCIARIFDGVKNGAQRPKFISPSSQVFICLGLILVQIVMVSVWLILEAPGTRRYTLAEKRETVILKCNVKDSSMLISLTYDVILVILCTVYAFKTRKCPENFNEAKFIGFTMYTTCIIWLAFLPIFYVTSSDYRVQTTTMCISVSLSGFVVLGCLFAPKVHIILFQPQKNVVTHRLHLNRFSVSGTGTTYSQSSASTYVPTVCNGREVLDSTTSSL

[5] = molecular target: Metabotropic glutamate receptor 6 (Homo sapiens, UniProt O15303); assay: Positive allosteric modulation of mGlu6 receptor (unknown origin)
Metabotropic glutamate receptor 6, sequence (O15303 whole entry): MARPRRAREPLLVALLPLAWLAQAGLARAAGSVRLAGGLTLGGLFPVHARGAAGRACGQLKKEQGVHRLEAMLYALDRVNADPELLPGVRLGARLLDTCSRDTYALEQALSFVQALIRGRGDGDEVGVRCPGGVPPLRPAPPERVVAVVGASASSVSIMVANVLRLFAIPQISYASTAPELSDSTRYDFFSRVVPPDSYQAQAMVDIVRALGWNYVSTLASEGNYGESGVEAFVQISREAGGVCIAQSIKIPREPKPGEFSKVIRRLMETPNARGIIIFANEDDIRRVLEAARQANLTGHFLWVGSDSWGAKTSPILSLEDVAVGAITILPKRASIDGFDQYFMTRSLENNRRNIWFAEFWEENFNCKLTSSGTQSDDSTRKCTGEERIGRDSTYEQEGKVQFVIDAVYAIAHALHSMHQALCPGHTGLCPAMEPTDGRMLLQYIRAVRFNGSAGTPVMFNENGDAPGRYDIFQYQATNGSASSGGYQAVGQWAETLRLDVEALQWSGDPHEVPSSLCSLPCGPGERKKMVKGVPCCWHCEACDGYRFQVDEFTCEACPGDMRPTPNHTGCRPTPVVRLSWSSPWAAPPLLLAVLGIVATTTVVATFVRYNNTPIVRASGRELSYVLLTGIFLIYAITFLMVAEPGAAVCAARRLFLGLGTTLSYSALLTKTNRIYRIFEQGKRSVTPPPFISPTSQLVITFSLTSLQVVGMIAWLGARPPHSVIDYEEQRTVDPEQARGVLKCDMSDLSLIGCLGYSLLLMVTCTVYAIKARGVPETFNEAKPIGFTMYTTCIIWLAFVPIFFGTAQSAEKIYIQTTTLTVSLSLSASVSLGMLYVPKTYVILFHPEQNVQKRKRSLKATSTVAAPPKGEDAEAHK

[6] = Half life in Beagle dog at 0.5 mg/kg, iv administered as single dose; assay type: ADME, organism-based, Canis lupus familiaris; conditions: in vivo
Salmonella typhimurium [7] = assay: Mutagenicity in Salmonella typhimurium by Ames test in absence of S9 liver fraction; assay type: toxicity, organism-based; conditions: salmonella enterica subsp. enterica serovar typhimurium
[8] = molecular target: D(2) dopamine receptor (Homo sapiens) (UniProt P14416); assay: Activity at dopamine D2 receptor (unknown origin)
D(2) dopamine receptor (Homo sapiens), sequence (P14416 whole entry): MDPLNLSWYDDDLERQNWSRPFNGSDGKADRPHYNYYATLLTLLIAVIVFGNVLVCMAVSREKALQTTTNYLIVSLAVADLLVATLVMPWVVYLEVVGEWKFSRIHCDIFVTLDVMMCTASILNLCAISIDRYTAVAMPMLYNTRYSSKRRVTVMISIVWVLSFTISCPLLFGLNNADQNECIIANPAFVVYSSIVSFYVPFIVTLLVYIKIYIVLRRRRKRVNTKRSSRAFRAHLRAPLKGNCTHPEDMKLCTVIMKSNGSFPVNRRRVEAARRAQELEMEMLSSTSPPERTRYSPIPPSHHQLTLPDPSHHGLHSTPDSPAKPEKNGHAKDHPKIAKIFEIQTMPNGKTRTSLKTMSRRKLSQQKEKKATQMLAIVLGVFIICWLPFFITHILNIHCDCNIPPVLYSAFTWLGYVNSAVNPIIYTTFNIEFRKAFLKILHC

[9] = Fraction unbound in Wistar Hannover rat plasma at 2 mg/kg, iv administered as single dose; assay type: ADME, organism-based
Rattus norvegicus [10] = assay: Antipsychotic activity in Sprague-Dawley rat assessed as inhibition of MK-801-induced hyperlocomotive activity at 30 mg/kg, treated for 30 mins followed by MK-801 challenge measured over 90 mins relative to vehicle control; assay type: functional, organism-based
Rattus norvegicus [11] = assay: Fraction unbound adjusted clearance in Wistar Hannover rat at 2 mg/kg, iv administered as single dose; assay type: ADME, organism-based; conditions: in vivo
CYP3A4 [12] = molecular target: T2, CYP3A4 (Homo sapiens, UniProt P08684); assay: Inhibition of CYP3A4 in human liver microsomes at 10 uM; assay type: ADME
T2 sequence (P08684 whole entry): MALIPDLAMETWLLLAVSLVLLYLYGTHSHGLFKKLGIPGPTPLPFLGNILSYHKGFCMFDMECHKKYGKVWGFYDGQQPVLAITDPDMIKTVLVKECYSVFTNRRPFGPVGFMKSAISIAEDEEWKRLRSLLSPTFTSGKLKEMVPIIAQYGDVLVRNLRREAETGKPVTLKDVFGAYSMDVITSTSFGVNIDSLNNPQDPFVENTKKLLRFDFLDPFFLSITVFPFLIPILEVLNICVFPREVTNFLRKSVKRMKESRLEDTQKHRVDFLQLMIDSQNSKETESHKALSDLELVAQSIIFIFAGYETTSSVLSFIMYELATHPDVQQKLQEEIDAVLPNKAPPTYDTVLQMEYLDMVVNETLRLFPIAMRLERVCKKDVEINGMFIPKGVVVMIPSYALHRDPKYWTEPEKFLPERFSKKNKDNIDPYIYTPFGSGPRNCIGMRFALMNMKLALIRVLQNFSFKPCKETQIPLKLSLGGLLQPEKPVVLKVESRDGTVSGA

Homo sapiens = organism: Homo sapiens; assay: Activity at PDE10 (unknown origin)
[13] = molecular target: 5-hydroxytryptamine receptor 2A (Homo sapiens) (UniProt P28223); assay: Activity at 5HT2A receptor (unknown origin)
5-hydroxytryptamine receptor 2A (Homo sapiens), sequence (P28223 whole entry): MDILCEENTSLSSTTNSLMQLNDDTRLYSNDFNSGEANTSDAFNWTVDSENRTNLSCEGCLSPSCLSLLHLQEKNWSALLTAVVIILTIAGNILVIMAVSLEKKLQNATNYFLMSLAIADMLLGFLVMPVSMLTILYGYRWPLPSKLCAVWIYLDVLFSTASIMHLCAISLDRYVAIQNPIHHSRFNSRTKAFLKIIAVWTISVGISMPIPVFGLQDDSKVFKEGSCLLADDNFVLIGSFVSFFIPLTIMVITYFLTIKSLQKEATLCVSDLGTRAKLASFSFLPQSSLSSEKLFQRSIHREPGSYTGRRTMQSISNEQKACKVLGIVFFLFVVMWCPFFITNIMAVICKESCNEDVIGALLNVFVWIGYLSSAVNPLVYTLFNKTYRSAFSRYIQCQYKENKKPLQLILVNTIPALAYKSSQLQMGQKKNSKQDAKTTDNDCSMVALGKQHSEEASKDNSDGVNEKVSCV

[14] = Half life in Wistar Hannover rat at 2 mg/kg, iv administered as single dose; assay type: ADME, organism-based; conditions: in vivo
Salmonella typhimurium [15] = assay: Mutagenicity in Salmonella typhimurium by Ames test in presence of S9 liver fraction; assay type: toxicity, organism-based; conditions: salmonella enterica subsp. enterica serovar typhimurium
Cerebrospinal fluid = assay: Drug uptake in Sprague-Dawley rat cerebrospinal fluid at 30 mg/kg, po; assay type: ADME, organism-based; conditions: in vivo, read-out: Drug uptake
[16] = Fraction unbound in Beagle dog plasma at 0.5 mg/kg, iv administered as single dose; assay type: ADME, organism-based, Canis lupus familiaris
Canis familiaris = assay: Fraction unbound adjusted clearance in Beagle dog at 0.5 mg/kg, iv administered as single dose; assay type: ADME, organism-based, Canis lupus familiaris; conditions: in vivo
[17] = (§1) AUC in Wistar Hannover rat at 10 mg/kg, po administered as single dose; assay type: ADME, organism-based; conditions: Wistar Hannover, in vivo
[18] = Solubility of compound at pH 7; assay type: physicochemical; conditions: buffer
Rattus norvegicus [19] = assay: as §1; assay type: ADME, organism-based; conditions: in vivo
Rattus norvegicus [20] = assay: (§2) Oral bioavailability in Wistar Hannover rat at 10 mg/kg administered as single dose; assay type: ADME, organism-based; conditions: in vivo
[21] = Clearance in Beagle dog at 0.5 mg/kg, iv administered as single dose; assay type: ADME, organism-based, Canis lupus familiaris; conditions: in vivo
P-gp [22] = assay: Substrate activity at rat P-gp assessed as efflux ratio of apparent permeability from basolateral to apical side to apical to basolateral side; assay type: ADME; conditions: not told
[23] = Substrate activity at human P-gp assessed as apparent permeability; assay type: ADME
P-gp [24] = assay: Substrate activity at rat P-gp assessed as apparent permeability; assay type: ADME; conditions: not told
[25] = molecular target: T1, Metabotropic glutamate receptor 2; assay: Positive allosteric modulation of recombinant human mGlu2 receptor expressed in CHO cells assessed as decrease in glutamate EC50 at 1 uM preincubated for 5 mins followed by glutamate stimulation for 3 mins by Fluo-4AM staining-based FLIPR assay relative to control; assay type: cell-based
Target sequence in this assay (Q14416 19-872 limits assumed): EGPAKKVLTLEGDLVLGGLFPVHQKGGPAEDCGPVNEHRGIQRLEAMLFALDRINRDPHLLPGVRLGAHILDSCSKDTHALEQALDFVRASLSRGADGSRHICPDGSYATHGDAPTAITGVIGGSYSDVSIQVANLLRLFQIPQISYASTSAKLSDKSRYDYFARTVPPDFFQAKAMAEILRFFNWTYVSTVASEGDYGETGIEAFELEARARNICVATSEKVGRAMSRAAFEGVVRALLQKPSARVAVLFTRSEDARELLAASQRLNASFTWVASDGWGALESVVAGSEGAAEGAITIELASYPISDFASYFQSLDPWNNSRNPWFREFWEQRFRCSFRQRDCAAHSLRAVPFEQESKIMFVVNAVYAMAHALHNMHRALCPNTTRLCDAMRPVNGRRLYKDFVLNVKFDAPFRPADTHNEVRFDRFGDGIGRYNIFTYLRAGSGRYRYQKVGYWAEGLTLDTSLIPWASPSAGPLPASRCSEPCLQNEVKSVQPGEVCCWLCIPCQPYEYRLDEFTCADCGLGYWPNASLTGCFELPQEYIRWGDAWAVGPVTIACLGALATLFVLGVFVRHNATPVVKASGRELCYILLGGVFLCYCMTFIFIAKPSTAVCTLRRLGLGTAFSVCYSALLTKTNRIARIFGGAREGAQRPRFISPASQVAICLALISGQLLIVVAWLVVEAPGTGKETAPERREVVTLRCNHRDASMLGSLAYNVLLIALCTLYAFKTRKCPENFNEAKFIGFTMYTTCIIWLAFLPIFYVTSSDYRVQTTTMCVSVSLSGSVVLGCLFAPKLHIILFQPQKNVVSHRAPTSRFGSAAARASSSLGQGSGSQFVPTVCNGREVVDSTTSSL

[26] = molecular target: T1, Metabotropic glutamate receptor 2; assay: Agonist activity at recombinant human mGlu2 receptor expressed in CHO cells assessed as potentiation of glutamate-induced effect preincubated for 5 mins followed by glutamate stimulation for 3 mins by Fluo-4AM staining-based FLIPR assay; assay type: cell-based
[27] = Clearance in Wistar Hannover rat at 2 mg/kg, iv administered as single dose; assay type: ADME, organism-based; conditions: in vivo
[28] = as §2; assay type: ADME, organism-based; conditions: Wistar Hannover, in vivo
Plasma = assay: Plasma concentration in Sprague-Dawley rat at 10 mg/kg, po; assay type: ADME, organism-based; conditions: in vivo
[29] = molecular target: Metabotropic glutamate receptor 2 (Rattus norvegicus, UniProt P31421); assay: Positive allosteric modulation of rat mGlu2 receptor assessed as potentiation of glutamate-induced effect by Fluo-4AM staining-based FLIPR assay
Cytochrome P450 3A4 = Cytochrome P450 3A4 (Homo sapiens, UniProt P08684); assay: (§3) Time dependent inhibition of CYP3A4 in human liver microsomes; assay type: ADME
Cytochrome P450 3A4, sequence (P08684 whole entry): as the sequence (P08684 whole entry) above

CYP3A4 [30] = molecular target: T2, CYP3A4; assay: as §3; assay type: ADME; conditions: human, liver microsomes
Rattus norvegicus [31] = assay: Antipsychotic activity in Sprague-Dawley rat assessed as inhibition of MK-801-induced hyperlocomotive activity at 10 mg/kg, treated for 30 mins followed by MK-801 challenge measured over 90 mins relative to vehicle control; assay type: functional, organism-based
[32] = AUC in Beagle dog at 1 mg/kg, po administered as single dose; assay type: ADME, organism-based, Canis lupus familiaris; conditions: in vivo
[33] = Intrinsic clearance in dog liver microsomes at 10 uM incubated for 20 to 60 mins by LC-HRMS analysis in presence of NADPH/GSH; assay type: ADME, Canis lupus familiaris; conditions: read-out: CLH
[34] = Oral bioavailability in Beagle dog at 1 mg/kg administered as single dose; assay type: ADME, organism-based, Canis lupus familiaris; conditions: in vivo

Cn1c(=O)n(CC(C)(C)C)c2ccc(N3CC4CCC3CN4)nc21 (racemic)
EC50 [1]: > 30 µM
%max [2]: 71%
EC50 [2]: 1.29 µM
EC50 [3]: > 30 µM
EC50 [4]: > 30 µM
EC50 [5]: > 30 µM

Cn1c(=O)n(CC(C)(C)C)c2ccc(C3=C[C@@H]4CC[C@H]3CN4C(=O)c3ccon3)nc21
half-life [6]: 16 h
EC50 [1]: > 30 µM
Activity (Salmonella typhimurium [7]): Non-toxic
Activity [8]: inactive
fraction unbound [9]: 0.02
Activity (Rattus norvegicus [10]): Active
CL free (Rattus norvegicus [11]): 17 mL/min/kg
%max [2]: 78%
EC50 [3]: > 30 µM
inhibition at 10 µM (CYP3A4 [12]): 6%
Activity (Homo sapiens): inactive
Activity [13]: inactive
EC50 [4]: > 30 µM
EC50 [5]: > 30 µM
half-life [14]: 10 h
Activity (Salmonella typhimurium [15]): Non-toxic
concentration (Cerebrospinal fluid): 61 nM
fraction unbound [16]: 0.02
CL free (Canis familiaris): 4.7 mL/min/kg

Cn1c(=O)n(CC(C)(C)C)c2ccc(N3CC4CCC3CN4c3ncccn3)nc21 (racemic)
%max [2]: 65%
EC50 [2]: 0.037 µM
AUC [17]: 3.9 µM·h
solubility [18]: 18 µM (≈ 7.34 µg/mL)

Cn1c(=O)n(CC(C)(C)C)c2ccc(C3CCN(C(=O)c4ccon4)CC3)nc21
%max [2]: 79%
EC50 [2]: 0.531 µM
inhibition at 10 µM (CYP3A4 [12]): 7%

Cn1c(=O)n(CC(C)(C)C)c2ccc(N3CC4CCC3CN4C(=O)c3cccnc3)nc21 (racemic)
CL free (Rattus norvegicus [11]): 2.9 mL/min/kg
%max [2]: 74%
EC50 [2]: 0.115 µM
half-life [14]: 0.5 h
AUC (Rattus norvegicus [19]): 18 µM·h
solubility [18]: 183 µM (≈ 79.5 µg/mL)
F (Rattus norvegicus [20]): 73%

Cn1c(=O)n(CC(C)(C)C)c2ccc(N3CCCCC3)nc21
EC50 [1]: > 30 µM
%max [2]: 87%
EC50 [2]: 0.43 µM
EC50 [3]: > 30 µM
EC50 [4]: > 30 µM
EC50 [5]: > 30 µM

Cn1c(=O)n(CC(C)(C)C)c2ccc(N3C[C@@H]4CC[C@H]3CN4C(=O)c3csnn3)nc21
half-life [6]: 2.5 h
clearance [21]: 14 mL/min/kg
EC50 [1]: > 30 µM
efflux ratio (P-gp [22]): 1.1
Activity [23]: Not Active
Papp (P-gp [24]): 30 ×10⁻⁶ cm/s
%max [2]: 72%
EC50 [2]: 0.029 µM
EC50 [3]: > 30 µM
EC50 [4]: > 30 µM
EC50 [5]: > 30 µM
fold change (FC) [25]: 26
AUC [17]: 13 µM·h
solubility [18]: 116 µM (≈ 51.2 µg/mL)
%max [26]: 49%
EC50 [26]: 0.637 µM

Cc1cc(CN2CC3CCC2CN3c2ccc3c(n2)n(C)c(=O)n3CC(C)(C)C)no1 (racemic)
%max [2]: 74%
EC50 [2]: 0.149 µM
AUC [17]: 2 µM·h
solubility [18]: 186 µM (≈ 79 µg/mL)

Cn1c(=O)n(CC(C)(C)C)c2ccc(N3CCCc4ccccc43)nc21
EC50 [1]: > 30 µM
%max [2]: 60%
EC50 [2]: 0.332 µM
EC50 [3]: > 30 µM
EC50 [4]: > 30 µM
EC50 [5]: > 30 µM

Cn1c(=O)n(CC(C)(C)C)c2ccc(N3CC4CCC3CN4C(=O)c3ccccc3)nc21 (racemic)
clearance [27]: 69 mL/min/kg
CL free (Rattus norvegicus [11]): 35 mL/min/kg
%max [2]: 71%
EC50 [2]: 0.036 µM
half-life [14]: 1.2 h
AUC [17]: 2 µM·h
solubility [18]: 66 µM (≈ 28.6 µg/mL)
bioavailability [28]: 10%

Cn1c(=O)n(CC(C)(C)C)c2ccc(N3CC4CCC3CN4C(=O)OC(C)(C)C)nc21 (racemic)
EC50 [1]: > 30 µM
%max [2]: 70%
EC50 [2]: 0.125 µM
EC50 [3]: > 30 µM
EC50 [4]: > 30 µM
EC50 [5]: > 30 µM

Cn1c(=O)n(CC(C)(C)C)c2ccc(N3CCCC4CCCCC43)nc21 (mixture of isomers)
EC50 [1]: > 30 µM
%max [2]: 77%
EC50 [2]: 2.2 µM
EC50 [3]: > 30 µM
EC50 [4]: > 30 µM
EC50 [5]: > 30 µM

Cn1c(=O)n(CC(C)(C)C)c2ccc(N3C[C@@H]4CC[C@H]3CN4C(=O)c3ccon3)nc21
half-life [6]: 12 h
concentration (Plasma): 3200 nM
clearance [21]: 7 mL/min/kg
clearance [27]: 28 mL/min/kg
EC50 [1]: > 30 µM
efflux ratio (P-gp [22]): 1.5
EC50 [29]: 0.075 µM
Activity [23]: Not Active
Papp (P-gp [24]): 31 ×10⁻⁶ cm/s
fraction unbound [9]: 0.06
Activity (Rattus norvegicus [10]): Active
CL free (Rattus norvegicus [11]): 4.7 mL/min/kg
%max [2]: 78%
EC50 [2]: 0.029 µM
EC50 [3]: > 30 µM
inhibition at 10 µM (CYP3A4 [12]): 73%
Ki (Cytochrome P450 3A4): 0.54 µM
TDI (Cytochrome P450 3A4; human, microsomes): Active
kinact (CYP3A4 [30]): 0.00107 s⁻¹
Activity (Rattus norvegicus [31]): Active
AUC [32]: 1.3 µM·h
CLint scaled at 10 µM [33]: < 55 mL/min/kg
bioavailability [34]: 24%
EC50 [4]: > 30 µM
EC50 [5]: > 30 µM
half-life [14]: 2.3 h
fold change (FC) [25]: 12
AUC [17]: 14 µM·h
solubility [18]: 125 µM (≈ 53.1 µg/mL)
%max [26]: 35%
EC50 [26]: 0.668 µM
fraction unbound [16]: 0.08
CL free (Canis familiaris): 0.9 mL/min/kg
bioavailability [28]: 72%

Source: ChEMBL document CHEMBL3804754, “Optimization of Novel Aza-benzimidazolone mGluR2 PAMs with Respect to LLE and PK Properties and Mitigation of CYP TDI” (ACS Med Chem Lett, 2016)
